Laboratory results published in article PMC6156508, “GA-Hecate antiviral properties on HCV whole cycle represent a new antiviral class and open the door for the development of broad spectrum antivirals” (Scientific Reports, 2018).
Where two headings read alike, the source gives them in different places. Where a SMILES comes first, the peptide text is derived from it. The star is where a group is joined. Galloyl = O=C(c1cc(O)c(O)c(O)c1)*

How the values were obtained:
[1] = test system: lipid droplets in HCVcc-infected Huh-7.5 cells; experiment: Intracellular distribution and quantity of neutral lipids (Bodipy 493/503); type: cell-based, human; conditions: 20 μM; 48 h; HCV-infected Huh-7.5
Source text: Figure 7 GA-Hecate effect on lipid droplets. (A) Pattern of lipid droplet distribution on treated and non-treated HCV-infected Huh-7.5 cells and the lipid droplets relative quantification. Blue: DAPI staining nuclei; Green: lipid droplets stained by Bodipy 493/503; Red: HCV NS5A represented by Alexa fluor-594. (B) Light Scattering Dynamic showing synthetic unilamellar vesicle size with lipid droplet constitution after treatment with the following: I. Water (negative control of size change); II. Triton-X 100 (positive control of size change); III. Hecate; IV. GA-Hecate.
To evaluate the GA-Hecate effect on the intracellular neutral lipid distribution, the GA-Hecate-treated cells at maximum non-cytotoxic concentration (20 μM) were evaluated 48 h post-treatment. For this purpose, 2 × 10^4 Huh-7.5 cells that were infected with HCVcc were seeded in a 24-well plate 24 h […] the treatment. On the following day, GA-Hecate or water (peptide diluent) were added in the plate and incubated for 48 h. […] To quantify the intracellular lipid content, two - four photos/well were performed and the fluorescence intensity was measured by ImageJ software. Bodipy fluorescence was normalized with DAPI fluorescence.

[2] = test system: J6/JFH-1-infected Huh-7.5 cells; experiment: Apoptosis analysis (active caspase-3 staining); type: cell-based, human; conditions: 1.25-40 μM; 48 and 72 h p.t.
Method: Apoptosis and Necrosis analysis
The ability of GA-Hecate inducing cell death by necrosis and apoptosis was assessed in 48 and 72h post-treatment (p.t) at concentrations: 1.25; 2.5; 5; 10; 20 and 40 μM. For necrosis evaluation, cells were stained using Propidium Iodide at […], which was incubated with the cells 15 minutes prior fixation. Subsequently, cells were fixed using paraformaldehyde 4% in PBS (PFA 4%) for 15 minutes and nuclei stained using DAPI 1 μg/mL for 5 minutes. For apoptosis evaluation, cells were fixed using PFA 4% during 15 minutes, permeabilized using Triton X- 100 (Sigma) 0.1% in PBS and stained using anti-Active Caspase 3 antibody (host: Rabbit) (1:200 in BSA 1% in PBS) (Abcam 13847) for 2h. Then cells were rinsed using PBS and stained using anti-rabbit AlexaFluor 594 (1:500 in BSA 1% PBS) (Thermo Scientific A21207) during 2h. Nuclei were stained using DAPI for 5 minutes. For both assays, cells were counted in 5 randomly chosen fields in duplicate. […]
Figure S2. Cell death mechanisms triggered by GA-Hecate 48h post-treatment in J6/JFH-1- infected Huh-7.5 cells. A) Apoptosis activation triggered by GA-Hecate was measured by Active Caspase-3 in treated cells. Caspase is artificially represented in green and nuclei were stained using DAPI 1µg/mL (blue). B) Necrosis assessment. […]

[3] = test system: HCV subgenomic replicon SGR-Feo-JFH-1 (genotype 2a); experiment: HCV subgenomic replicon replication, luciferase assay (genotype 2a); type: cell-based, hepatitis C virus
Source text: Figure 2 Hecate and its derivative-peptide effects on subgenomic HCV genotype 2a replication and hepatotoxicity. (A) Hecate. (B) Lys- Hecate. (C) GA-Hecate. (D) GA2-Hecate. (E) Acetyl-Hecate. (F) Glu-Hecate. Luciferase assays report HCV replication and MTT assays report the viability of Huh-7.5 cells harboring SGR-JFH-1 Feo under peptide treatment. Water was used as a negative control of virus replication inhibition and cell death (Control (−)), and Cyclosporine A was used as a positive control for virus replication inhibition (Control (+)). Red dotted lines represent the arbitrary threshold of 80% cell viability, and blue dotted lines represent the maximum inhibition presented by Hecate at the maximum safe concentration. Bars represent triplicates of the three independent assays. ***P < 0.01 vs control (−).
Cell lines harboring subgenomic or genomic replicons were seeded at 5 × 10^3 cells /well on 96-well plates and the compounds were added 24 h post-seeding, in a concentration range between 2.5–20 μM. After 48 h of treatment, the cells were disrupted with 30 μL of passive lysis buffer (Promega, Madison, WI, USA), and luciferase substrate (Promega, Madison, WI, USA) was automatically added to each sample. Luciferase activity was measured using a luminometer (FLUOstar Omega/BMG LABTECH, Offenburg, BW, DE). The same assays were performed in Huh-7.5 cell lines harboring SGR-JFH1 Feo, S52/SG-neo or FL-J6/JFH-50C19Rluc2AUbi. Cyclosporine A (Sigma-Aldrich) at 1 μM was used as positive control of viral replication inhibition and dH2O as negative control.
GA-Hecate toxicity and viral inhibition profile in 24, 48 and 72h post-treatment in […]
GA-Hecate toxicity and viral inhibition capacity were evaluated at 24, 48 and 72h post-treatment. Tested concentrations were 1.25; 2.5; 5; 10; 20; and 40 µM. At the end of every incubation, cells were stained using MTT as previously described. Similarly, at every time point, treated cells were lysed using PLB and summited to Luminescence analysis as previously described. […]

`CC(C)C[C@H](NC(=O)[C@H](C)NC(=O)[C@H](CCCCN)NC(=O)[C@H](CCCCN)NC(=O)[C@H](CC(C)C)NC(=O)[C@H](C)NC(=O)[C@H](CCCCN)NC(=O)[C@H](CCCCN)NC(=O)[C@H](CC(C)C)NC(=O)[C@H](CCCCN)NC(=O)[C@H](CCCCN)NC(=O)[C@H](CC(C)C)NC(=O)[C@H](C)NC(=O)[C@H](CCCCN)NC(=O)[C@H](CCCCN)NC(=O)[C@H](CC(C)C)NC(=O)[C@H](C)NC(=O)[C@H](CCCCN)NC(=O)[C@H](CC(C)C)NC(=O)[C@H](C)NC(=O)[C@H](CC(C)C)NC(=O)[C@H](C)NC(=O)[C@H](Cc1ccccc1)NC(=O)c1cc(O)c(O)c(O)c1)C(N)=O` [GA-Hecate] (Galloyl-FALALKALKKALKKLKKALKKAL-NH2) was tested, and the “effect on lipid droplets distribution and quantity” value [1] was “altered the lipid droplets distribution and reduced its quantity”, the “apoptosis induction (active caspase-3)” value [2] was “no significate apoptosis induction in any tested time point or concentration” and the “inhibition of viral replication” value ([3]; 1.25 µM, 72 h) was “about 50%”. The “SI (selectivity index), ratio CC50/EC50” value ([3]; 48 h, genotype 2a replicon) was 3.13, the “SI 72 h post-treatment” value ([3]; 72 h) was 5 and the EC50 ([3]; Huh-7.5 harbouring SGR-Feo-JFH-1 genotype 2a, 48 h treatment, 2.5-20 μM, luciferase, triplicate in three independent assays, read-out: EC50 (50% effective concentration for HCV)) was 11.2 µM. The EC50 ([3]; SGR-Feo JFH-1, 72 h, 1.25-40 µM, read-out: EC50 72 h post-treatment (IC50 in the supplement)) was 3.8 µM and the “inhibition of HCV replication at the maximum safe concentration” value ([3]; genotype 2a replicon, 48 h, at each peptide's maximum safe concentration (Hecate 10 μM; Lys-, Glu-, Acetyl-Hecate 5 μM)) was “approximately 80%”.
